Measurements from ChEMBL document CHEMBL1150968, “Debromosceptrin, an alkaloid from the Caribbean sponge Agelas conifera” (1998).
Active and inactive are the calls of the source. No cut-off for these calls is given here.

Key:
[1] = test system: Mycobacterium tuberculosis; experiment: Antimycobacterial activity against Mycobacterium tuberculosis at 12.5 ug/ml; assay type: functional
[2] = test system: Human immunodeficiency virus; experiment: Antiviral activity against HIV; assay type: functional, organism-based

| SMILES | Activity [1] [%] | Activity [2] |
| --- | --- | --- |
| Cl.Cl.Nc1ncc([C@H]2[C@H](CNC(=O)c3ccc[nH]3)[C@@H](CNC(=O)c3cc(Br)c[nH]3)[C@@H]2c2cnc(N)[nH]2)[nH]1 [MONOBROMOSCEPTRIN] | 35 | – |
| Cl.Cl.Nc1ncc([C@H]2[C@H](CNC(=O)c3cc(Br)c[nH]3)[C@@H](CNC(=O)c3cc(Br)c[nH]3)[C@@H]2c2cnc(N)[nH]2)[nH]1 [SCEPTRIN HYDROCHLORIDE] | 14 | – |
| Nc1nc([C@H]2[C@H](CNC(=O)c3ccc[nH]3)[C@@H](CNC(=O)c3cc(Br)c[nH]3)[C@@H]2c2c[nH]c(N)n2)c[nH]1 | – | inactive |
| Nc1nc([C@H]2[C@H](CNC(=O)c3cc(Br)c[nH]3)[C@@H](CNC(=O)c3cc(Br)c[nH]3)[C@@H]2c2c[nH]c(N)n2)c[nH]1 | – | inactive |
| Nc1ncc([C@H]2[C@H](CNC(=O)c3ccc[nH]3)[C@@H](CNC(=O)c3ccc[nH]3)[C@@H]2c2cnc(N)[nH]2)[nH]1 | – | inactive |
